Legend:
Assay type in all cases: in vivo
corn (Zea mays) = assay: Test A pre-/postemergence plant response
Summary of the method: (§1)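 Injury scores (0, no effect; 100, complete control) come from visual comparison with untreated controls roughly ten days post-treatment. Test chemicals in a surfactant-containing non-phytotoxic solvent were applied as a directed soil spray preemergence and to one- to two-leaf seedlings postemergence.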

[1] = test system: velvetleaf (Abutilon theophrasti); assay: Test A pre-/postemergence plant response
Summary of the method: as §1

[2] = test system: barnyardgrass (Echinochloa crus-galli); assay: Test A pre-/postemergence plant response
Summary of the method: as §1

[3] = test system: wheat (Triticum aestivum); assay: Test A pre-/postemergence plant response
Summary of the method: as §1

[4] = test system: giant foxtail (Setaria faberii); assay: Test A pre-/postemergence plant response
Summary of the method: as §1

[5] = test system: pigweed (Amaranthus retroflexus); assay: Test A pre-/postemergence plant response
Summary of the method: as §1

[6] = test system: morningglory (Ipomoea spp.); assay: Test A pre-/postemergence plant response
Summary of the method: as §1

[7] = test system: large crabgrass (Digitaria sanguinalis); assay: Test A pre-/postemergence plant response
Summary of the method: as §1

rice (Oryza sativa) = assay: Test B flooded paddy test
Summary of the method: (§2)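 Visual scores run from 0 (no effect) to 100 (complete control), assigned by comparison with controls 13 to 15 days after treatment. Test compounds went straight into water standing 3 cm above the soil, around plants at the 2-leaf stage kept in a greenhouse.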

[8] = test system: ducksalad (Heteranthera limosa); assay: Test B flooded paddy test
Summary of the method: as §2

[9] = test system: chickweed (Stellaria media); assay: Test B postemergence plant response; settings: Postemergence
Summary of the method: (§3)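 Plants at the 1- to 4-leaf stage (2 to 18 cm tall), grown in pots of peat moss/vermiculite medium with wetting agent and starter nutrients, received postemergence applications of test chemicals. After 13 to 15 days in a greenhouse, injury was rated visually against untreated controls on a 0 (no effect) to 100 (complete control) scale.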

[10] = test system: canarygrass (Phalaris minor); assay: Test B postemergence plant response; settings: Postemergence
Summary of the method: as §3

[11] = test system: windgrass (Apera spica-venti); assay: Test B postemergence plant response; settings: Postemergence, scale 0 (no effect) to 100 (complete control)
Summary of the method: as §3

[12] = Postemergence, 125 g ai/ha, visual injury, 0 to 100 scale (0 no effect, 100 complete control), approx. ten days
[13] = Postemergence, 500 g ai/ha, 0 to 100 scale, 0 = no effect, 100 = complete control, approx. ten days
[14] = Preemergence, 125 g ai/ha, 0 to 100 scale, 0 = no effect, 100 = complete control
[15] = Preemergence, 500 g ai/ha, visual injury, 0 to 100 scale (0 no effect, 100 complete control), approx. ten days
[16] = 250 g ai/ha, flooded paddy test, visual rating on 0 to 100 scale (0 no effect, 100 complete control) after 13 to 15 days
[17] = Flood (flooded paddy test), 62 g ai/ha, scale 0 to 100, 0 is no effect, 100 is complete control, 13 to 15 days
[18] = 31 g ai/ha, scale 0 to 100 (0 no effect, 100 complete control)
[19] = 62 g ai/ha, scale 0 (no effect) to 100 (complete control), 13 to 15 days
[20] = 125 g ai/ha, visual rating after 13 to 15 days, scale 0 (no effect) to 100 (complete control)

With `CCCCc1ncc(C(=O)C2=C(O)CCCC2=O)c(=O)n1-c1ccccc1` [Compound 42] the “Corn plant response rating” value (corn (Zea mays); [12]) was 0, the “Plant response rating, Corn” value (corn (Zea mays); [13]) was 30 and the “Plant response rating, Corn” value (corn (Zea mays); [14]) was 0. For the same compound, the “Plant response rating, Corn” value (corn (Zea mays); [15]) was 0, the “Velvetleaf plant response rating” value [1, 12] was 100 and the “Plant response rating, Velvetleaf” value [1, 13] was 100. The “Plant response rating, Velvetleaf” value [1, 14] was 70, the “Plant response rating, Velvetleaf” value [1, 15] was 100 and the “Barnyardgrass plant response rating” value [2, 12] was 60. The “Plant response rating, Barnyardgrass” value [2, 13] was 90, the “Plant response rating, Barnyardgrass” value [2, 14] was 0 and the “Plant response rating, Barnyardgrass” value [2, 15] was 60. The “Wheat plant response rating” value [3, 12] was 0, the “Plant response rating, Wheat” value [3, 13] was 0 and the “Plant response rating, Wheat” value [3, 14] was 0. For the same compound, the “Plant response rating, Wheat” value [3, 15] was 0, the “Foxtail, Giant plant response rating” value [4, 12] was 40 and the “Plant response rating, Foxtail, Giant” value [4, 13] was 70. The “Plant response rating, Foxtail, Giant” value [4, 14] was 10, the “Plant response rating, Foxtail, Giant” value [4, 15] was 40 and the “Pigweed plant response rating” value [5, 12] was 100. For the same compound, the “Plant response rating, Pigweed” value [5, 13] was 100, the “Plant response rating, Pigweed” value [5, 14] was 90 and the “Plant response rating, Pigweed” value [5, 15] was 100. The “Morningglory plant response rating” value [6, 12] was 80, the “Plant response rating, Morningglory” value [6, 13] was 80 and the “Plant response rating, Morningglory” value [6, 14] was 0. The “Plant response rating, Morningglory” value [6, 15] was 50, the “Crabgrass, Large plant response rating” value [7, 12] was 60 and the “Plant response rating, Crabgrass, Large” value [7, 13] was 80. For the same compound, the “Plant response rating, Crabgrass, Large” value [7, 14] was 40, the “Plant response rating, Crabgrass, Large” value [7, 15] was 90 and the “Plant response rating, Flood, Rice” value (rice (Oryza sativa); [16]) was 20. For the same compound, the “Plant response rating, Rice” value (rice (Oryza sativa); [17]) was 0, the “Plant response rating, Flood, Ducksalad” value [8, 16] was 50 and the “Plant response rating, Ducksalad” value [8, 17] was 30. For the same compound, the “Plant response rating, Chickweed” value [9, 18] was 60, the “Plant response rating, Chickweed” value [9, 19] was 70 and the “Plant response rating, Chickweed” value [9, 20] was 80. For the same compound, the “Chickweed plant response rating” value ([9]; 250 g ai/ha, scale 0 to 100) was 95, the “Plant response rating, Canarygrass” value [10, 18] was 0 and the “Plant response rating, Canarygrass” value [10, 19] was 0. The “Plant response rating, Canarygrass” value [10, 20] was 0, the “Canarygrass plant response rating” value ([10]; 250 g ai/ha, scale 0 to 100) was 0 and the “Plant response rating, Windgrass” value ([11]; 62 g ai/ha, 13 to 15 days) was 60. The “Plant response rating, Windgrass” value ([11]; 125 g ai/ha, visual rating after 13 to 15 days) was 70.
